For 9 molecules, DC50 and Dmax results are on record in patent publication US12539292B2, “BRM targeting compounds and associated methods of use” (Arvinas Operations, Inc., priority 2018, dated 2026).

This experiment deals with T1, BRM (Homo sapiens, UniProt P51531).
T1 construct: In-Cell Western Screen of BRM Degradation in SW1573 Cells; endogenous in cells; host or cells: SW1573
Briefly: In-cell Western screen of BRM degradation in SW1573 cells (Dmax and DC50). It is filed as cell-based. The essentials:
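BRM levels were read by LI-COR in-cell Western after two-channel (800/680 nm) immunostaining of fixed, Triton-permeabilised SW1573 cells.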

Where [1] appears, read: BRM degradation, SW1573 cells, read-out: DC50.
Where [2] appears, read: BRM degradation, SW1573 cells, tested at the top concentration of between 0.3 and 10 μM, read-out: Dmax (%) (% degraded).
Setting [3] is: SW1573, % degraded, when tested at the top concentration of between 0.3 and 10 μM, read-out: BRM Dmax (%).
Where [4] appears, read: target protein degradation, read-out: BRM DC50.

Molecules are shown by their SMILES. Read-outs that look alike come from different tables or passages of the source.

T1 sequence (P51531 whole entry): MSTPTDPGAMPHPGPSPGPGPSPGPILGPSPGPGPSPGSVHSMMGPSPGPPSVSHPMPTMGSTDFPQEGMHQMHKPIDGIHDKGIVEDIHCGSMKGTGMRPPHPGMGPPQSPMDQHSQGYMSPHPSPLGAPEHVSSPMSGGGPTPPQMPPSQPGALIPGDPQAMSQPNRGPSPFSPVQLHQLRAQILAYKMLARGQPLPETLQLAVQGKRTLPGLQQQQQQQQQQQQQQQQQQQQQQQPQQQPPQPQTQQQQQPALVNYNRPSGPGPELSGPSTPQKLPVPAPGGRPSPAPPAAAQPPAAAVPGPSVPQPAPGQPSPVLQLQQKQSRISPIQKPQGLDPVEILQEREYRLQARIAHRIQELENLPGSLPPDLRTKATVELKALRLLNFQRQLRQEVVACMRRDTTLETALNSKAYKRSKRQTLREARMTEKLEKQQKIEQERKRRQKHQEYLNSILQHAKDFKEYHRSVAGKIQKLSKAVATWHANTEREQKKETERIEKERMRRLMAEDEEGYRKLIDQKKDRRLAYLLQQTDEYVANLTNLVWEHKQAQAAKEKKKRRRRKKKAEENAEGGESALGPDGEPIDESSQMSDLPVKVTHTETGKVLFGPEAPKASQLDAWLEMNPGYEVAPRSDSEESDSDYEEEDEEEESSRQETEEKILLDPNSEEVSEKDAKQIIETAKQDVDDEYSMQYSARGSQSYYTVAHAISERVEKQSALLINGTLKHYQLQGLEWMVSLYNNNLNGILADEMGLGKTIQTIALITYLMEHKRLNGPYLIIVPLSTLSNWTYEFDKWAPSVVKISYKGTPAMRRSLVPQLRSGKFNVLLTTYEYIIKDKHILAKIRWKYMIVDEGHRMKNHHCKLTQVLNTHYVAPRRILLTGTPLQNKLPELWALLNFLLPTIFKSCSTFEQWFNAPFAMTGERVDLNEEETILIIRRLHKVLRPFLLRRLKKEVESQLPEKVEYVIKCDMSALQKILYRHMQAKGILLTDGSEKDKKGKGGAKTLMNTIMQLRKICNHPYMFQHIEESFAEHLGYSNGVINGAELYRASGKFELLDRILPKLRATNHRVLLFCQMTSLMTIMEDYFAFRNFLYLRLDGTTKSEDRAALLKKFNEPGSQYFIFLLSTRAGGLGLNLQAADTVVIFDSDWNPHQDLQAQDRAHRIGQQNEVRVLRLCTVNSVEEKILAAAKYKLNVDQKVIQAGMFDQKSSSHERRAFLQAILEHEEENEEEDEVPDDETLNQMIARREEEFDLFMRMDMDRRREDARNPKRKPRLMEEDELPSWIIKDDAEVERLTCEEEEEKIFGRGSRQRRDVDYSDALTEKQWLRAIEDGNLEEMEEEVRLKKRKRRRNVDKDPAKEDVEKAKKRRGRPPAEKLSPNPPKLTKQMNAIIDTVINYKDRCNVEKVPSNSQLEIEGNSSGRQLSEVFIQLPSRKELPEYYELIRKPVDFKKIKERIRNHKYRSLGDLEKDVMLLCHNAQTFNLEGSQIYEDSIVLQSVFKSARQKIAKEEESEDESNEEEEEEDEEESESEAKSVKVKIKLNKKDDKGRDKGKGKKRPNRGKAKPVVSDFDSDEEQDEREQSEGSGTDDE

The DC50 is the concentration at which degradation of the target reaches its halfway point. The Dmax is the greatest extent of degradation seen. For the molecule `Cc1ncsc1-c1ccc([C@H](C)NC(=O)[C@@H]2C[C@@H](O)CN2C(=O)[C@@H](c2cc(OCCN3CCC(O[C@H]4C[C@H](Oc5cc(N6C7CCC6CN(c6cc(-c8ccccc8O)nnc6N)C7)ccn5)C4)CC3)no2)C(C)C)cn1` [compound 180, (2S,4R)-1-((2R)-2-(3-(2-(4-((1r,3R)-3-((4-(3-(3-amino-6-(2-hydroxyphenyl)pyridazin-4-yl)-3,8-diazabicyclo[3.2.1]octan-8-yl)pyridin-2-yl)oxy)cyclobutoxy)piperidin-1-yl)ethoxy)isoxazol-5-yl)-3-methylbutanoyl)-4-hydroxy-N-((S)-1-(6-(4-methylthiazol-5-yl)pyridin-3-yl)ethyl)pyrrolidine-2-carboxamide], the DC50 under setting [1] was less than 2.5 nM. In addition, the Dmax under setting [2] was more than 75%.
The corresponding values for `Cc1ncsc1-c1ccc([C@H](C)NC(=O)[C@@H]2C[C@@H](O)CN2C(=O)[C@H](c2cc(OC/C=C/c3ccc(O[C@H]4C[C@H](Oc5cc(N6C7CCC6CN(c6cc(-c8ccccc8O)nnc6N)C7)ccn5)C4)cn3)no2)C(C)C)cn1` [compound 206, (2S,4R)-1-((2S)-2-(3-(((E)-3-(5-((1r,3S)-3-((4-(3-(3-amino-6-(2-hydroxyphenyl)pyridazin-4-yl)-3,8-diazabicyclo[3.2.1]octan-8-yl)pyridin-2-yl)oxy)cyclobutoxy)pyridin-2-yl)allyl)oxy)isoxazol-5-yl)-3-methylbutanoyl)-4-hydroxy-N-((S)-1-(6-(4-methylthiazol-5-yl)pyridin-3-yl)ethyl)pyrrolidine-2-carboxamide] are 10 to 30 nM and more than 75%.
Regarding `Cc1ncsc1-c1ccc([C@H](C)NC(=O)[C@@H]2C[C@@H](O)CN2C(=O)[C@@H](c2cc(OCCOCCOCCCCN3CC4(CCN(c5cc(-c6ccccc6O)nnc5N)CC4)C3)no2)C(C)C)cc1` [compound 72, (2S,4R)-1-((R)-2-(3-(2-(2-(4-(7-(3-amino-6-(2-hydroxyphenyl)pyridazin-4-yl)-2,7-diazaspiro[3.5]nonan-2-yl)butoxy)ethoxy)ethoxy)isoxazol-5-yl)-3-methylbutanoyl)-4-hydroxy-N-((S)-1-(4-(4-methylthiazol-5-yl)phenyl)ethyl)pyrrolidine-2-carboxamide], the DC50 under setting [1] lay within 10 to 30 nM. Further, the Dmax (BRM degradation, SW1573 cells, when tested at the top concentration of between 0.3 and 10 μM, read-out: Dmax (%) (% degraded)) was more than 75%.
For `Cc1ncsc1-c1ccc([C@H](C)NC(=O)[C@@H]2C[C@@H](O)CN2C(=O)[C@@H](c2cc(N3CCC(OC4CCN(C[C@H]5C[C@H](Oc6cc(N7C8CCC7CN(c7cc(-c9ccccc9O)nnc7N)C8)ccn6)C5)CC4)CC3)no2)C(C)C)cc1` [compound 474, (2S,4R)-1-((2R)-2-(3-(4-((1-(((1r,3r)-3-((4-(3-(3-amino-6-(2-hydroxyphenyl)pyridazin-4-yl)-3,8-diazabicyclo[3.2.1]octan-8-yl)pyridin-2-yl)oxy)cyclobutyl)methyl)piperidin-4-yl)oxy)piperidin-1-yl)isoxazol-5-yl)-3-methylbutanoyl)-4-hydroxy-N-((S)-1-(4-(4-methylthiazol-5-yl)phenyl)ethyl)pyrrolidine-2-carboxamide], the Dmax under setting [3] is more than 75%. In addition, the DC50 under setting [4] was less than 2.5 nM.
Take `Cc1ncsc1-c1ccc([C@H](C)NC(=O)[C@@H]2C[C@@H](O)CN2C(=O)[C@H](c2cc(OCC(F)(F)CN3CCC(O[C@H]4C[C@H](Oc5cc(N6C7CCC6CN(c6cc(-c8ccccc8O)nnc6N)C7)ccn5)C4)CC3)no2)C(C)C)cn1` [compound 421, (2S,4R)-1-((2S)-2-(3-(3-(4-((1r,3S)-3-((4-(3-(3-amino-6-(2-hydroxyphenyl)pyridazin-4-yl)-3,8-diazabicyclo[3.2.1]octan-8-yl)pyridin-2-yl)oxy)cyclobutoxy)piperidin-1-yl)-2,2-difluoropropoxy)isoxazol-5-yl)-3-methylbutanoyl)-4-hydroxy-N-((S)-1-(6-(4-methylthiazol-5-yl)pyridin-3-yl)ethyl)pyrrolidine-2-carboxamide]: the DC50 (degradation of BRM, read-out: BRM DC50) was more than 30 nM.
In the case of `Cc1ncsc1-c1ccc([C@H](CCC#N)NC(=O)[C@@H]2C[C@@H](O)CN2C(=O)[C@@H](c2cc(N3CCC(CN4CCC(O[C@H]5C[C@H](Oc6cc(N7C8CCC7CN(c7cc(-c9ccccc9O)nnc7N)C8)ccn6)C5)CC4)CC3)no2)C(C)C)cc1` [compound 672, (2S,4R)-1-((2R)-2-(3-(4-((4-((1r,3r)-3-((4-(3-(3-amino-6-(2-hydroxyphenyl)pyridazin-4-yl)-3,8-diazabicyclo[3.2.1]octan-8-yl)pyridin-2-yl)oxy)cyclobutoxy)piperidin-1-yl)methyl)piperidin-1-yl)isoxazol-5-yl)-3-methylbutanoyl)-N-((S)-3-cyano-1-(4-(4-methylthiazol-5-yl)phenyl)propyl)-4-hydroxypyrrolidine-2-carboxamide], the DC50 under setting [1] is less than 2.5 nM. In addition, the Dmax (BRM degradation, SW1573 cells, read-out: Dmax (% degraded)) was more than 75%.
As to `Cc1ncsc1-c1ccc([C@H](C)NC(=O)[C@@H]2C[C@@H](O)CN2C(=O)[C@H](c2cc(OCCOCCOCCOCCn3cc(-c4cc(-c5ccccc5O)nnc4N)cn3)no2)C(C)C)cc1` [compound 181, (2S,4R)-1-((S)-2-(3-(2-(2-(2-(2-(4-(3-amino-6-(2-hydroxyphenyl)pyridazin-4-yl)-1H-pyrazol-1-yl)ethoxy)ethoxy)ethoxy)ethoxy)isoxazol-5-yl)-3-methylbutanoyl)-4-hydroxy-N-((S)-1-(4-(4-methylthiazol-5-yl)phenyl)ethyl)pyrrolidine-2-carboxamide], the DC50 under setting [1] is more than 30 nM.
With `Cc1ncsc1-c1ccc([C@H](C)NC(=O)[C@@H]2C[C@@H](O)CN2C(=O)[C@H](c2cc(OC3CN(CCN4CCC(O[C@H]5C[C@H](Oc6cc(N7C8CCC7CN(c7cc(-c9ccccc9O)nnc7N)C8)ccn6)C5)CC4)C3)no2)C(C)C)cc1` [compound 370, (2S,4R)-1-((2S)-2-(3-((1-(2-(4-((1r,3r)-3-((4-(3-(3-amino-6-(2-hydroxyphenyl)pyridazin-4-yl)-3,8-diazabicyclo[3.2.1]octan-8-yl)pyridin-2-yl)oxy)cyclobutoxy)piperidin-1-yl)ethyl)azetidin-3-yl)oxy)isoxazol-5-yl)-3-methylbutanoyl)-4-hydroxy-N-((S)-1-(4-(4-methylthiazol-5-yl)phenyl)ethyl)pyrrolidine-2-carboxamide], under setting [3], the Dmax is more than 75%. In addition, the DC50 under setting [4] is 10 to 30 nM.
With `Cc1ncsc1-c1ccc([C@H](C)NC(=O)[C@@H]2C[C@@H](O)CN2C(=O)[C@@H](c2cc(OCCN3C[C@H]4C[C@@H](O[C@H]5C[C@H](Oc6cc(N7C8CCC7CN(c7cc(-c9ccccc9O)nnc7N)C8)ccn6)C5)C[C@H]4C3)no2)C(C)C)cc1` [compound 360, (2S,4R)-1-((2R)-2-(3-(2-((3aR,5R,6aS)-5-((1r,3R)-3-((4-(3-(3-amino-6-(2-hydroxyphenyl)pyridazin-4-yl)-3,8-diazabicyclo[3.2.1]octan-8-yl)pyridin-2-yl)oxy)cyclobutoxy)hexahydrocyclopenta[c]pyrrol-2(1H)-yl)ethoxy)isoxazol-5-yl)-3-methylbutanoyl)-4-hydroxy-N-((S)-1-(4-(4-methylthiazol-5-yl)phenyl)ethyl)pyrrolidine-2-carboxamide], under setting [3], the Dmax is more than 75%. Also, under setting [4], the half-maximal degradation concentration (DC50) was less than 2.5 nM.
